Test results from patent publication US12447153B2, “HER2 mutation inhibitors” (Array BioPharma Inc., priority 2021, dated 2025).

Key:
[1] = target: EGFR (Homo sapiens (Human), UniProt P00533); experiment: ErbB Enzyme Assay (HTRF KinEASE-TK), Assay 3; assay type: biochemical; conditions: EGFR enzyme assay
[2] = target: EGFR wild type (EGFR WT) (Homo sapiens (Human), UniProt P00533); experiment: Cellular Phosphorylation Assay, Assay 5 (EGF-stimulated EGFR phosphorylation, NIH 3T3 cells); assay type: cell-based; conditions: cellular EGFR WT phosphorylation, EGF-stimulated
[3] = target: ErbB2 WT (Homo sapiens (Human), UniProt P04626); experiment: ErbB Enzyme Assay (HTRF KinEASE-TK), Assay 2; assay type: biochemical; conditions: ErbB2 WT enzyme assay
[4] = target: ErbB2 with Exon 20 YVMA insertion (HER2-YVMA) (Homo sapiens (Human), UniProt P04626, INS775YVMA); experiment: Cellular Phosphorylation Assay, Assay 4 (constitutive ErbB2 phosphorylation, NIH 3T3 cells); assay type: cell-based; conditions: cellular ErbB2 YVMA phosphorylation
Sequence of ErbB2 with Exon 20 YVMA insertion (HER2-YVMA) (P04626 other isoform, or with tags, fused parts or gaps ins YVMA behind 775): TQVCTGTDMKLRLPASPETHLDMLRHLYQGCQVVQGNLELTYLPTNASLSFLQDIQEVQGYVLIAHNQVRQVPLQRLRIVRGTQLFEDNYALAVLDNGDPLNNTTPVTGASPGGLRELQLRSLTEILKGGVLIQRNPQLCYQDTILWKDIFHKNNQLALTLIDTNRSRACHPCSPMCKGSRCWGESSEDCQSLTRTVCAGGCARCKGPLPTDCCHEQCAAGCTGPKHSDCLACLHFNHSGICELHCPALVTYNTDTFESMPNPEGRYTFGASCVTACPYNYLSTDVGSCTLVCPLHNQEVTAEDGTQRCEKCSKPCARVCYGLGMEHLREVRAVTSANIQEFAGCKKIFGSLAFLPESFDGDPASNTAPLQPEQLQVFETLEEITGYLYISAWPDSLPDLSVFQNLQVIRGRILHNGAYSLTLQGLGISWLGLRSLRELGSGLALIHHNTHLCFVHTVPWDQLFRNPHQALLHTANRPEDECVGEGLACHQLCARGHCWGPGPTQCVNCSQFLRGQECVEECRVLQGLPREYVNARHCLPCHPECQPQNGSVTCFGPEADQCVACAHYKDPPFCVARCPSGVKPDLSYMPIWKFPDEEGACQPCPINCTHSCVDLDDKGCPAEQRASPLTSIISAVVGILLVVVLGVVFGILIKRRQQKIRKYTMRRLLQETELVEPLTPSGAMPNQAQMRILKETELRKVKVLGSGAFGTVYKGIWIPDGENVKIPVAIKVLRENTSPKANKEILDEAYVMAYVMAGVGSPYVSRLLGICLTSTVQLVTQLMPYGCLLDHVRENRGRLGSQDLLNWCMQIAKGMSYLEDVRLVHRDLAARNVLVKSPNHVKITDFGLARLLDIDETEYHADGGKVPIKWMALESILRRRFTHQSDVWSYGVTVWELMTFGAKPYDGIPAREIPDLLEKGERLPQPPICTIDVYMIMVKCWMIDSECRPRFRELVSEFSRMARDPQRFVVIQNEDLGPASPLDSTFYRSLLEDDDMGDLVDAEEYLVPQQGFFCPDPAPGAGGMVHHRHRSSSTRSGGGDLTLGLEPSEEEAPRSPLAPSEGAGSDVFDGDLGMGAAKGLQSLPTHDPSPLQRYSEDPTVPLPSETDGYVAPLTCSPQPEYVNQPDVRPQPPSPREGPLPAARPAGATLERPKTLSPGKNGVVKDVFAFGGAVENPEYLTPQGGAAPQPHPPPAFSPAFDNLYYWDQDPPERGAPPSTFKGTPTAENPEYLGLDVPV

Sequence of ErbB2 WT (P04626 23-1255): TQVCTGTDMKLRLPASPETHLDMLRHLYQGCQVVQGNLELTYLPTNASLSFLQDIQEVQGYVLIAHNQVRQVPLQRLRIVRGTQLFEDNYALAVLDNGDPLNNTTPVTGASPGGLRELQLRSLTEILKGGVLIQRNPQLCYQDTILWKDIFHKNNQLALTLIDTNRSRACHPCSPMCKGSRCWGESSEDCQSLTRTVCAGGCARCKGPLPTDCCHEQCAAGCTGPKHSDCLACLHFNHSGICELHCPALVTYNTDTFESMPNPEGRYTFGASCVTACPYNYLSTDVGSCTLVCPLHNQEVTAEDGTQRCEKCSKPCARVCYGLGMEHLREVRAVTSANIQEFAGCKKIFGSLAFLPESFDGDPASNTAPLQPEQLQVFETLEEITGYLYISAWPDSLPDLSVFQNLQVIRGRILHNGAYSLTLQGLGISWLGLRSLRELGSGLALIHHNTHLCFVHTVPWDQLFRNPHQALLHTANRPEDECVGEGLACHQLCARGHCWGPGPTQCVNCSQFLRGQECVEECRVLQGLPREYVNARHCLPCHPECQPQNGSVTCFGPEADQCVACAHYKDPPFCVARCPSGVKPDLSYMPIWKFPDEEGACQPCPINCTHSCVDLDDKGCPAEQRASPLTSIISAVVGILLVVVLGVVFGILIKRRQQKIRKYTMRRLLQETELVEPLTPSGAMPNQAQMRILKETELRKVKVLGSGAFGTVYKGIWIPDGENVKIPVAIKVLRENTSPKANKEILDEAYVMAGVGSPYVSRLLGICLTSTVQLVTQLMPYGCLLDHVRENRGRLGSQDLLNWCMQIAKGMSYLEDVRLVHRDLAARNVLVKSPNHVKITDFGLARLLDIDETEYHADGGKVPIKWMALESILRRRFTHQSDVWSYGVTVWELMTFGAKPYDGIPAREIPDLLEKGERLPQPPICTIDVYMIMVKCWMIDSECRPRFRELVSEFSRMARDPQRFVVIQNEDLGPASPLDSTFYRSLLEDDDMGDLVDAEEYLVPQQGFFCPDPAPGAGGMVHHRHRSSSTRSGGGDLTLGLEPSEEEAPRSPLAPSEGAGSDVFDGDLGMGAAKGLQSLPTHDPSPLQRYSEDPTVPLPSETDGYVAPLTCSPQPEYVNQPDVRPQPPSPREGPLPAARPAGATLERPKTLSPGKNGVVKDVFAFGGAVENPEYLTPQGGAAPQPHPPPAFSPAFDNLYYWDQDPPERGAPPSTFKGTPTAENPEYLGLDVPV
Sequence of EGFR wild type (EGFR WT) (P00533 25-1210): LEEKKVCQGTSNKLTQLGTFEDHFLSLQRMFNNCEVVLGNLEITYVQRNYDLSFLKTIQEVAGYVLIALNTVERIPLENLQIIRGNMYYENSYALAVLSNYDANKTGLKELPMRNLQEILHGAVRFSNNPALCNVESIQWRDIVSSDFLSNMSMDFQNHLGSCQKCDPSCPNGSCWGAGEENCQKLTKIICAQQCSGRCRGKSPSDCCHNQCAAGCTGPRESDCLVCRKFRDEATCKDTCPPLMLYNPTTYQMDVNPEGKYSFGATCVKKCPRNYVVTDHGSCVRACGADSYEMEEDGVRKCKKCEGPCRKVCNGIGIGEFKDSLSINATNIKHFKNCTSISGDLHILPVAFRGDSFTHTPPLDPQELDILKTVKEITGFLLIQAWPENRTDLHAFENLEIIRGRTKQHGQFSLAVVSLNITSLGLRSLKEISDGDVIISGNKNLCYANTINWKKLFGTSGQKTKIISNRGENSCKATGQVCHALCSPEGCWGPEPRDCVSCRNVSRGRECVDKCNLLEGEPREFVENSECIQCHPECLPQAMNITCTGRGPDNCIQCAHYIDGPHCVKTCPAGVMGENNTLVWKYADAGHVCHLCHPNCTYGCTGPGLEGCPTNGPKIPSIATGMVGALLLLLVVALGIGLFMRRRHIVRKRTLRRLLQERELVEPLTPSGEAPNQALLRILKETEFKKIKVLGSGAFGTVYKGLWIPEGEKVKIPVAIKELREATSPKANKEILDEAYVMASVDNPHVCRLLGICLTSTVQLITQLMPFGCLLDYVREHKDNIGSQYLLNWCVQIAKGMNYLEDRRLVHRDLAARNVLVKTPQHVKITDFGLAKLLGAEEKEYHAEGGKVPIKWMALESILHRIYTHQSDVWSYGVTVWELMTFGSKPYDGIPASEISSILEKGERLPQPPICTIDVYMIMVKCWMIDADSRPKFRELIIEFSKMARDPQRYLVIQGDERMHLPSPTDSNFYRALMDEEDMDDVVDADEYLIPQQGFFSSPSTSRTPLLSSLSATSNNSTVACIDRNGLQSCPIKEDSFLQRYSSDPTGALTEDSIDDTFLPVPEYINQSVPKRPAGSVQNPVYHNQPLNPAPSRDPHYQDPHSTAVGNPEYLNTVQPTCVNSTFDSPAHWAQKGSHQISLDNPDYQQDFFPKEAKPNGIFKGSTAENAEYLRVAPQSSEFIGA
Sequence of EGFR (P00533 25-1210): as above

| Compound | IC50 [1] | IC50 [2] | IC50 [3] | IC50 [4] |
| --- | --- | --- | --- | --- |
| CC#CC(=O)N1CC[C@@H]2C[C@H]1CN2c1ccc2ncnc(Nc3cc(Cl)c(Oc4ccn5ncnc5c4)cc3F)c2n1 [Example 315] | ≥ 10000 nM | ≥ 5000 nM | 119 nM | 68.8 nM |
| CC#CC(=O)N1C[C@@H]2C[C@H]1CN2c1ccc2ncnc(Nc3ccc(Oc4ccn5ncnc5c4)c(Cl)c3F)c2n1 [Example 316] | 1970 nM | 1450 nM | 23.1 nM | 61.6 nM |
| C=CC(=O)N1CC[C@@H]2C[C@H]1CN2c1ccc2ncnc(Nc3ccc(Oc4cnc5c(c4)ncn5C)c(C)c3F)c2n1 [Example 317] | 268 nM | 117 nM | 44 nM | 6.4 nM |
| C=CC(=O)N1C[C@@H]2CC[C@H]1CN2c1ccc2ncnc(Nc3ccc(Oc4cnc5c(c4)ncn5C)c(C)c3F)c2n1 [Example 320] | 436 nM | 78.3 nM | 45.6 nM | 9.4 nM |
| C=CC(=O)N1C[C@@H]2CC[C@H]1CN2c1ccc2ncnc(Nc3cc(Cl)c(Oc4ccn5ncnc5c4)cc3F)c2n1 [Example 321] | 86.4 nM | 124 nM | 4.6 nM | 3.8 nM |
| C=CC(=O)N1C[C@@H]2CC[C@H]1CN2c1ccc2ncnc(Nc3cc(C)c(Oc4cnc5c(c4)ncn5C)cc3F)c2n1 [Example 324] | 419 nM | 276 nM | 50.8 nM | 10.2 nM |
| C=CC(=O)N1C[C@H]2CC[C@@H]1CN2c1ccc2ncnc(Nc3cc(Cl)c(Oc4ccn5ncnc5c4)cc3F)c2n1 [Example 330] | ≥ 10000 nM | ≥ 5000 nM | 239 nM | 241 nM |
| C=CC(=O)N1C[C@@H]2CC[C@H]1CN2c1ccc2ncnc(Nc3ccc(Oc4ccn5ncnc5c4)c(C)c3F)c2n1 [Example 331] | 48.8 nM | 79 nM | 4.7 nM | 3.2 nM |
| C=CC(=O)N1CC2CC(C1)N2c1ccc2ncnc(Nc3cc(C)c(Oc4ccn5ncnc5c4)cc3F)c2n1 [Example 336] | 5700 nM | 4880 nM | 203 nM | 50.5 nM |
| C=CC(=O)N1CCN(c2ccc3ncnc(Nc4ccc(Oc5ccn6ncnc6c5)c(C)c4F)c3n2)CC12CC2 [Example 338] | 108 nM | 68.9 nM | 7 nM | 4.9 nM |
| C=CC(=O)N1CCN(c2ccc3ncnc(Nc4ccc(Oc5ccc6c(c5)ncn6C)c(C)c4F)c3n2)CC12CC2 [Example 339] | ≥ 10000 nM | 361 nM | 14.1 nM | 16.4 nM |
| C=C(C)C(=O)N1CCN(c2ccc3ncnc(Nc4ccc(Oc5ccn6ncnc6c5)c(C)c4F)c3n2)CC1(C)C [Example 341] | ≥ 10000 nM | ≥ 5000 nM | 113 nM | 529 nM |
| C=CC(=O)N1CCC12CN(c1ccc3ncnc(Nc4cc(Cl)c(Oc5ccn6ncnc6c5)cc4F)c3n1)C2 [Example 343] | 841 nM | 372 nM | 44.6 nM | 9.4 nM |
| C=CC(=O)N1CCN(c2ccc3ncnc(Nc4ccc(Oc5ccn6ncnc6c5)c(Cl)c4F)c3n2)C[C@H]1COC [Example 344] | 88.4 nM | 46.8 nM | 7.7 nM | 3.4 nM |
| C=CC(=O)N1CCN(c2ccc3ncnc(Nc4cc(Cl)c(Oc5ccn6ncnc6c5)cc4F)c3n2)C[C@H]1COC [Example 345] | 174 nM | 115 nM | 9.4 nM | 5.1 nM |
| C=CC(=O)N1CCN(c2ccc3ncnc(Nc4cc(C)c(Oc5ccn6ncnc6c5)cc4F)c3n2)C[C@H]1COC [Example 347] | 772 nM | 380 nM | 38 nM | 8.2 nM |
| C=CC(=O)N1CCN(c2ccc3ncnc(Nc4ccc(Oc5ccn6ncnc6c5)c(Cl)c4F)c3n2)C[C@@H]1COC [Example 348] | 414 nM | 348 nM | 12.1 nM | 8.2 nM |
| C=CC(=O)N(C)[C@@H]1CCN(c2ccc3ncnc(Nc4ccc(Oc5ccn6ncnc6c5)c(C)c4F)c3n2)C1 [Example 349] | 2680 nM | ≥ 5000 nM | 29.3 nM | 35.8 nM |
| C=CC(=O)N(C)[C@@H]1CCN(c2ccc3ncnc(Nc4cc(C)c(Oc5ccn6ncnc6c5)cc4F)c3n2)C1 [Example 350] | ≥ 10000 nM | ≥ 5000 nM | 69.4 nM | 96 nM |
| C=CC(=O)N(C)[C@H]1CCN(c2ccc3ncnc(Nc4ccc(Oc5ccn6ncnc6c5)c(C)c4F)c3n2)C1 [Example 352] | 2910 nM | ≥ 5000 nM | 25.4 nM | 11.5 nM |
| C=CC(=O)N1CCC12CN(c1ccc3ncnc(Nc4ccc(Oc5ccn6ncnc6c5)c(Cl)c4F)c3n1)C2 [Example 360] | 121 nM | 178 nM | 8.8 nM | 4.1 nM |

| Compound | IC50 [1] | IC50 [2] | IC50 [3] | IC50 [4] |
| --- | --- | --- | --- | --- |
| C=CC(=O)N1CCN(c2ccc3ncnc(Nc4ccc(Oc5ccn6ncnc6c5)c(Cl)c4F)c3n2)CC12CC2 [Example 363] | 22.3 nM | 35.8 nM | 1.8 nM | 3.2 nM |
| C=C(C)C(=O)N1CCN(c2ccc3ncnc(Nc4ccc(Oc5ccn6ncnc6c5)c(C)c4F)c3n2)CC1 [Example 364] | ≥ 10000 nM | ≥ 5000 nM | 127 nM | 556 nM |
| C=CC(=O)N1CCN(c2ccc3ncnc(Nc4cc(Cl)c(Oc5ccn6ncnc6c5)cc4F)c3n2)CC1C(F)F (centres unmarked) [Example 365] | 465 nM | 238 nM | 17.6 nM | 16.5 nM |
| C=CC(=O)N1CCN(c2ccc3ncnc(Nc4ccc(Oc5ccn6ncnc6c5)c(Cl)c4F)c3n2)CC1C(F)F (centres unmarked) [Example 366] | 68.3 nM | 35.6 nM | 7.3 nM | 5.3 nM |
| C=CC(=O)N1C[C@H]2CC[C@@H]1CN2c1ccc2ncnc(Nc3cc(C)c(Oc4cnc5c(c4)ncn5C)cc3F)c2n1 [Example 367] | ≥ 10000 nM | ≥ 5000 nM | 2330 nM | 70.4 nM |
| C=CC(=O)N1CCCC(c2ccc3ncnc(Nc4cc(C)c(Oc5ccn6ncnc6c5)cc4F)c3n2)C1 (centres unmarked) [Example 370] | 1990 nM | 3170 nM | 56 nM | 47.3 nM |
| C=CC(=O)N1C[C@H]2C[C@@H]1[C@H](c1ccc3ncnc(Nc4cc(C)c(Oc5ccn6ncnc6c5)cc4F)c3n1)C2 [Example 371] | 3440 nM | ≥ 5000 nM | 55 nM | 82.4 nM |
| C=CC(=O)N1C[C@H]2C[C@@H]1[C@H](c1ccc3ncnc(Nc4ccc(Oc5ccn6ncnc6c5)c(C)c4F)c3n1)C2 [Example 372] | 1130 nM | 4080 nM | 19 nM | 52.7 nM |
| C=CC(=O)N1C[C@@H]2C[C@H]1C[C@H]2c1ccc2ncnc(Nc3cc(C)c(Oc4ccn5ncnc5c4)cc3F)c2n1 [Example 373] | 1580 nM | 3360 nM | 55.5 nM | 44 nM |
| C=CC(=O)N1CCCCC(c2ccc3ncnc(Nc4cc(C)c(Oc5ccn6ncnc6c5)cc4F)c3n2)C1 (centres unmarked) [Example 376] | 2110 nM | 4490 nM | 33.5 nM | 36 nM |
| C=CC(=O)N1CCCCC(c2ccc3ncnc(Nc4ccc(Oc5ccn6ncnc6c5)c(C)c4F)c3n2)C1 (centres unmarked) [Example 377] | 187 nM | 426 nM | 13 nM | 16.3 nM |
| C=CC(=O)N1C[C@@H]2C[C@H]1CC[C@@H]2c1ccc2ncnc(Nc3cc(C)c(Oc4ccc5c(c4)ncn5C)cc3F)c2n1 [Example 378] | 4560 nM | ≥ 5000 nM | 54 nM | 66.3 nM |
| C=CC(=O)N1C[C@@H]2C[C@H]1CC[C@@H]2c1ccc2ncnc(Nc3ccc(Oc4ccc5c(c4)ncn5C)c(C)c3F)c2n1 [Example 379] | 4210 nM | ≥ 5000 nM | 29.2 nM | 36.5 nM |
| C=CC(=O)N1C[C@@H]2C[C@H]1CC[C@@H]2c1ccc2ncnc(Nc3cc(C)c(Oc4ccn5ncnc5c4)cc3F)c2n1 [Example 380] | 5680 nM | ≥ 5000 nM | 68.1 nM | 125 nM |
| C=CC(=O)N1C[C@@H]2C[C@H]1CC[C@@H]2c1ccc2ncnc(Nc3ccc(Oc4ccn5ncnc5c4)c(C)c3F)c2n1 [Example 381] | 1720 nM | 2640 nM | 28.9 nM | 67.3 nM |
| C=CC(=O)N1CC[C@H]2C[C@H](c3ccc4ncnc(Nc5ccc(Oc6ccn7ncnc7c6)c(C)c5F)c4n3)C[C@H]21 [Example 382] | 584 nM | 339 nM | 15 nM | 21 nM |
| C=CC(=O)N1C[C@@H]2C[C@H](c3ccc4ncnc(Nc5ccc(Oc6ccc7c(c6)ncn7C)c(C)c5F)c4n3)C[C@H]1C2 [Example 389] | 277 nM | 685 nM | 20.4 nM | 31.1 nM |
| C=CC(=O)N1C[C@@H]2C[C@H](c3ccc4ncnc(Nc5cc(C)c(Oc6ccn7ncnc7c6)cc5F)c4n3)C[C@H]1C2 [Example 390] | 2210 nM | 1250 nM | 68.1 nM | 30.2 nM |
| C=CC(=O)N1C[C@@H]2C[C@H](c3ccc4ncnc(Nc5ccc(Oc6ccn7ncnc7c6)c(C)c5F)c4n3)C[C@H]1C2 [Example 391] | 368 nM | 238 nM | 23.9 nM | 19.8 nM |
| C=CC(=O)N1[C@@H]2CC[C@H]1[C@H](c1ccc3ncnc(Nc4cc(C)c(Oc5ccn6ncnc6c5)cc4F)c3n1)C2 [Example 392] | 1480 nM | ≥ 5000 nM | 9.8 nM | 82 nM |
